One series relates to ACHN. Description: NCI 60 cell one-dose screening (SRB). It is filed as cell-based. Particulars: Homo sapiens, Renal Cancer, single dose 10 µM, 48 h, read-out: Percentage of cellular growth inhibition. The method in brief: (§1)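 Single dose 10 µM, 48 h exposure; RPMI 1640/5% FBS/2 mM Gln, 37 °C. TCA fix (10% adherent, 16% suspension), 0.4% SRB, A515. Value = 100 − growth % relative to untreated control.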

The test system of the next series is U251. Description: NCI 60 cell one-dose screening (SRB). The note with it: Homo sapiens, U-251; U251, CNS Cancer; single dose 10 µM, 48 h; read-out: Percentage of cellular growth inhibition. It counts as cell-based. The gist of the method:
as §1

The subject of a further series is NCI-H460. Put plainly: NCI 60 cell one-dose screening (SRB). It counts as cell-based. Particulars: Homo sapiens; NCI-H460, Non-Small Cell Lung Cancer; single dose 10 µM, 48 h; read-out: Percentage of cellular growth inhibition. The method in brief: as §1
The subject of a further series is SR. Description: NCI 60 cell one-dose screening (SRB). It counts as cell-based. The note with it: Homo sapiens, Leukemia, single dose 10 µM, 48 h, read-out: Percentage of cellular growth inhibition. The method in brief:
as §1

The subject of the next series is T-47D. Put plainly: NCI 60 cell one-dose screening (SRB). It counts as cell-based. Particulars: Homo sapiens, T47D, 48 h, Breast Cancer, single dose 10 µM, read-out: Percentage of cellular growth inhibition. The method in brief: as §1
A further series concerns DU-145. Put plainly: NCI 60 cell one-dose screening (SRB). Particulars: Homo sapiens; DU-145, Prostate Cancer; single dose 10 µM, 48 h; read-out: Percentage of cellular growth inhibition. It is filed as cell-based. The method in brief: as §1
The test system of another series is SW-620. Description: NCI 60 cell one-dose screening (SRB). Particulars: Homo sapiens; SW-620, Colon Cancer; single dose 10 µM, 48 h; read-out: Percentage of cellular growth inhibition. It counts as cell-based. The method in brief: as §1
The next series relates to MCF7. Put plainly: NCI 60 cell one-dose screening (SRB). The note with it: Homo sapiens; MCF7, Breast Cancer; single dose 10 µM, 48 h; read-out: Percentage of cellular growth inhibition. It is filed as cell-based. The gist of the method:
as §1

The next series has as its system SF-295. Put plainly: NCI 60 cell one-dose screening (SRB). It counts as cell-based. The note with it: Homo sapiens; SF-295, CNS Cancer; single dose 10 µM, 48 h; read-out: Percentage of cellular growth inhibition. The method in brief:
as §1

A further series concerns NCI-H522. Description: NCI 60 cell one-dose screening (SRB). It is filed as cell-based. Particulars: Homo sapiens; NCI-H522, Non-Small Cell Lung Cancer; single dose 10 µM, 48 h; read-out: Percentage of cellular growth inhibition. The gist of the method:
as §1

Another series relates to LOX IMVI. Put plainly: NCI 60 cell one-dose screening (SRB). It is filed as cell-based. Particulars: Homo sapiens, Melanoma, single dose 10 µM, 48 h, read-out: Percentage of cellular growth inhibition. The method in brief:
as §1

In the next series the test system is MDA-MB-231/ATCC. Description: NCI 60 cell one-dose screening (SRB). The note with it: Homo sapiens, Breast Cancer, single dose 10 µM, 48 h, read-out: Percentage of cellular growth inhibition. It is filed as cell-based. The method in brief: as §1
The subject of a further series is UACC-62. Description: NCI 60 cell one-dose screening (SRB). It counts as cell-based. The note with it: Homo sapiens; UACC-62, Melanoma; single dose 10 µM, 48 h; read-out: Percentage of cellular growth inhibition. The method in brief: as §1
Another series deals with HCT-116. Description: NCI 60 cell one-dose screening (SRB). It is filed as cell-based. The note with it: Homo sapiens; HCT-116, Colon Cancer; single dose 10 µM, 48 h; read-out: Percentage of cellular growth inhibition. The method in brief: as §1
The next series deals with NCI-H23. Description: NCI 60 cell one-dose screening (SRB). It counts as cell-based. Particulars: Homo sapiens; NCI-H23, Non-Small Cell Lung Cancer; single dose 10 µM, 48 h; read-out: Percentage of cellular growth inhibition. The gist of the method:
as §1

Another series relates to M14. Put plainly: NCI 60 cell one-dose screening (SRB). The note with it: Homo sapiens; M14, Melanoma; single dose 10 µM, 48 h; read-out: Percentage of cellular growth inhibition. It counts as cell-based. The gist of the method:
as §1

Another series deals with HCC-2998. Put plainly: NCI 60 cell one-dose screening (SRB). Particulars: Homo sapiens; HCC-2998, Colon Cancer; single dose 10 µM, 48 h; read-out: Percentage of cellular growth inhibition. It is filed as cell-based. The method in brief: as §1
The subject of series [1] is Breast T47D cancer cell line. Description: In vitro inhibition concentration of breast T47D cancer cell line. It is filed as cell-based. Particulars: Homo sapiens. As to the method:
Cells were seeded and treated with a range of inhibitors concentration 39–10,000 nM after 24 h relative to DMSO. […]

Melting point, inhibition and IC50 data for four molecules are collected here from article PMC9897788, “Design, synthesis and cytotoxic evaluation of novel bis-thiazole derivatives as preferential Pim1 kinase inhibitors with in vivo and in silico study” (Journal of Enzyme Inhibition and Medicinal Chemistry, 2023).

As for `CCOC(=O)c1sc(Nc2cccc(Nc3nc(C)c(C(=O)OCC)s3)c2)nc1C` [3c, Diethyl 2,2’-(1,3-phenylenebis(azanediyl))bis(4-methylthiazole-5-carboxylate)], the melting point lay within 107 to 108 °C. Besides, the inhibition at 10 µM in the series with ACHN is 24.6%. In the series with U251, the inhibition at 10 µM was 16.7%. Moreover, the inhibition at 10 µM in the series on NCI-H460 was found to be 23.5%. The inhibition at 10 µM in the series with SR came to 36.1%. Besides, the inhibition at 10 µM with T-47D worked out at 63.9%. Moreover, the inhibition at 10 µM with DU-145 was determined as 16.2%. Further, the inhibition at 10 µM in the series on SW-620 was found to be 11.4%. For the same molecule, in the series on MCF7, the inhibition at 10 µM was determined as 26.7%. For the same molecule, the inhibition at 10 µM in the series on SF-295 is 33.8%. Further, the inhibition at 10 µM in the series with NCI-H522 is 26.7%. Further, the inhibition at 10 µM in the series with LOX IMVI amounted to 25.5%. The inhibition at 10 µM in the series with MDA-MB-231/ATCC worked out at 20.8%. In addition, the inhibition at 10 µM with UACC-62 stood at 33.1%. The inhibition at 10 µM in the series with HCT-116 stood at 43.5%. For the same molecule, the inhibition at 10 µM in the series with NCI-H23 came to 41.6%. The inhibition at 10 µM in the series on M14 was found to be 14%. Also, the inhibition at 10 µM in the series on HCC-2998 worked out at 9.7%.

With `CCOc1ccc(/N=N/c2sc(Nc3cccc(Nc4nc(C)c(/N=N/c5ccc(OCC)cc5)s4)c3)nc2C)cc1` [5b, N^1,N^3-bis(5-((4-ethoxyphenyl)diazinyl)-4-methylthiazol-2-yl)benzene-1,3-diamine], the melting point is 116 to 118 °C. In addition, the inhibition at 10 µM in the series with ACHN came out at 1.1%. For the same molecule, the inhibition at 10 µM with U251 turned out to be 3.3%. Besides, in the series with NCI-H460, the inhibition at 10 µM was -6.8%. In the series on SR, the inhibition at 10 µM is -15.5%. For the same molecule, the inhibition at 10 µM in the series on T-47D turned out to be 17.1%. Also, in the series with DU-145, the inhibition at 10 µM was -3.9%. The inhibition at 10 µM with SW-620 is -0.3%. Further, in the series on MCF7, the inhibition at 10 µM came out at 10.6%. The inhibition at 10 µM in the series with SF-295 came out at 4.4%. The inhibition at 10 µM in the series on NCI-H522 is 12.9%. The inhibition at 10 µM in the series on LOX IMVI is 2.6%. Further, the inhibition at 10 µM in the series with MDA-MB-231/ATCC was 6.7%. In the series on UACC-62, the inhibition at 10 µM was determined as 20.5%. Besides, the inhibition at 10 µM in the series on HCT-116 amounted to 3.8%. The inhibition at 10 µM in the series with NCI-H23 was determined as 10.6%. Besides, the inhibition at 10 µM in the series on M14 was -7%. The inhibition at 10 µM in the series with HCC-2998 is -4.6%.

In turn, `Clc1ccc(-c2csc(Nc3cccc(Nc4nc(-c5ccc(Cl)cc5)cs4)c3)n2)cc1` [6c, N^1,N^3-bis(4–(4-chlorophenyl)thiazol-2-yl)benzene-1,3-diamine] showed a melting point of 100 to 101 °C. For the same molecule, the IC50 in series [1] (48 h) worked out at 27.3 µM. For the same molecule, the IC50 in series [1] (96 h) was found to be 1.85 µM. Also, the inhibition at 10 µM in the series with ACHN came out at 14.3%. The inhibition at 10 µM in the series on U251 came to 2.2%. Moreover, the inhibition at 10 µM in the series on NCI-H460 is -2.1%. For the same molecule, the inhibition at 10 µM in the series with SR amounted to 3.9%. The inhibition at 10 µM in the series with T-47D came out at 18.3%. Also, the inhibition at 10 µM in the series with DU-145 is -1.8%. Moreover, in the series on SW-620, the inhibition at 10 µM amounted to 0.4%. For the same molecule, the inhibition at 10 µM in the series with MCF7 worked out at 9.8%. Besides, the inhibition at 10 µM in the series on SF-295 came out at 4%. Also, in the series with NCI-H522, the inhibition at 10 µM came out at 13.2%. Besides, the inhibition at 10 µM in the series with LOX IMVI was 7.3%. The inhibition at 10 µM in the series on MDA-MB-231/ATCC was 24.9%. Further, the inhibition at 10 µM in the series with UACC-62 was found to be 17.4%. The inhibition at 10 µM in the series on HCT-116 was determined as 38.5%. Besides, the inhibition at 10 µM in the series with NCI-H23 stood at 10.1%. The inhibition at 10 µM in the series on M14 came out at 29.3%. The inhibition at 10 µM in the series on HCC-2998 was -10.9%.

Regarding `CC(=O)c1sc(Nc2cccc(Nc3nc(C)c(C(C)=O)s3)c2)nc1C` [3b, 1,1’-(2,2’-(1,3-Phenylenebis(azanediyl))bis(4-methylthiazole-5,2-diyl))diethanone], the IC50 in [1] (48 h) was determined as 5.77 µM; in [1] (96 h), 1.46 µM. Further, the inhibition at 10 µM with ACHN is 63.5%; in the series on U251, 34.3%; in the series with NCI-H460, 54.4%; with SR it was 61.5%; in the series with DU-145, 54.6%; in the series on SW-620 it was 37.5%. Also, the inhibition at 10 µM with MCF7 came to 38.3%; with SF-295, 13.5%; in the series with NCI-H522, 53.8%; in the series on LOX IMVI, 51.9%; in the series on MDA-MB-231/ATCC it was 19.3%; in the series with UACC-62, 51.2%. For the same molecule, the inhibition at 10 µM in the series on HCT-116 stood at 55.8%; with NCI-H23, 36.8%; with M14, 48.7%; in the series on HCC-2998, 19.9%.

In general, melting point refers to the temperature of the solid-liquid transition. A word on the inhibition: it is the drop in the measured response relative to a control, in per cent. As a reminder, the IC50 is the midpoint of a concentration-inhibition curve. Higher therefore signals weaker potency.
